Source: paper PMC7917437 (Journal of Medicinal Chemistry, 2021)

Columns and labels:
laminitis = conditions: cited from earlier work
CYP2B6 = test: CYP induction, mRNA by qRT-PCR in cultured human hepatocytes; format: in vitro ADME; conditions: up to 30 μM, i.e., < 2-fold change and/or <20% of the positive control
[1] = system: mouse, rat, monkey, and human hepatocyte incubations; test: In vitro metabolism in hepatocyte incubations; format: in vitro ADME; conditions: HPLC and mass spectrometry
[2] = system: chronic constriction injury model of neuropathy; test: Chronic constriction injury model of neuropathy, von Frey assay; format: in vivo, male SD rats; conditions: AUC over 6 h post dose
LPS-induced mouse model = LPS-induced mouse model ref 38; cited from earlier work
clinical = conditions: both, human, plasma, oral
[3] = Phase 1a single ascending dose study in healthy volunteers

| Compound | outcome in a laminitic horse scheduled for euthanasia (laminitis; after 5 days of treatment ref 49) | adverse effects from clinical exams and blood work (laminitis; horse, five-day treatment, once daily 0.1 mg/kg ref 49) | outcome in seven other laminitic horses (laminitis; when all other treatments failed ref 50) | effect on CYP2B6 mRNA levels (CYP2B6) | putative metabolites detected [1] | efficacy compared with pregabalin ([2]; at 10–20 fold lower doses, vs pregabalin (30 mg/kg) p = 0.039) | pain measured with a von Frey assay (mechanical withdrawal thresholds) ([2]; male SD rats, oral gavage, 3 mg/kg, vs PEG 300 p ≤ 0.001) | neuroinflammation in the CNS (LPS-induced mouse model) | half-life (clinical) | effective total AUC for a daily dosing regimen ([3]; calculated) | absorption ([3]; human, single oral doses) |
| --- | --- | --- | --- | --- | --- | --- | --- | --- | --- | --- | --- |
| O=C(Nc1ccc(OC(F)(F)F)cc1)N[C@H]1CC[C@H](Oc2ccc(C(=O)O)cc2)CC1 [t-TUCB, trans-4-{4-[3-(4-trifluoromethoxy-phenyl)-ureido]-cyclohexyloxy}-benzoic acid] | complete recovery with no recurrent laminitis | no signs of adverse effects | showed improvement in disease |  |  |  |  |  |  |  |  |
| CC[C@H](C)C(=O)N1CCC(NC(=O)Nc2ccc(OC(F)(F)F)c(F)c2)CC1 [EC5026, (S)-1-(3-Fluoro-4-(trifluoromethoxy)phenyl)-3-(1-(2-methylbutanoyl)piperidin-4-yl)urea] |  |  |  | little or no effect | seven | superior to pregabalin | blocked pain | prevent neuroinflammation | 42 to 59 h | 6 ng·h/mL | well absorbed with linear dose-proportionality |
